Measured values: patent US20160363588A1, “URINE SAMPLE ANALYSIS METHOD AND REAGENT KIT FOR URINE SAMPLE ANALYSIS” (SYSMEX CORPORATION, priority 2014, published 2016)

Assays:
Pseudomonas aeruginosa = conditions: P. aeruginosa, 1000 ppm acetic acid aqueous solution
Protocol: (§1) In this example, the antimicrobial activity of acetic acid against various bacteria was evaluated. As a control, a saline was used. The antimicrobial activity was evaluated on the basis of the number of colonies of the bacterium on the solid culture medium.
(§2) To each of an acetic acid aqueous solution and a saline, various species of bacteria were added to a concentration of 1×10^5 cells/mL to obtain bacterial suspensions. Each 100 μL was taken from the obtained bacterial suspensions, and these were taken as samples at day 0 of culture. The remaining bacterial suspensions were cultured for 7 days at 37° C. for E. coli and S. aureus and at 25° C. for P. aeruginosa, and each 100 μL was taken from the obtained bacterial suspensions as samples at day 7 of culture. Each 100 μL of the sample was coated on a heart infusion agar culture medium, and cultured at the respective culture temperatures. The culture time was 20 hours for E. coli, 24 hours for S. aureus and 48 hours for P. aeruginosa. After culturing, the number of colonies on the agar culture medium was counted, and the bacterial number (CFU/mL) was calculated.

Escherichia coli = conditions: E. coli, 1000 ppm acetic acid aqueous solution
Protocol: as §1, §2

Staphylococcus aureus = conditions: S. aureus, 1000 ppm acetic acid aqueous solution
Protocol: as §1, §2

Structure (SMILES): CC(=O)O [acetic acid]
- Bacterial number At day 7 (Pseudomonas aeruginosa; cultured 7 days at 25° C.): 0 CFU/mL
- proliferation of bacteria in the solution (Pseudomonas aeruginosa; culturing for 7 days): cannot be proliferated
- Bacterial number At day 0 (Pseudomonas aeruginosa; day 0 of culture): 1000 CFU/mL
- Bacterial number At day 7 (Escherichia coli; cultured 7 days at 37° C.): 0 CFU/mL
- proliferation of bacteria in the solution (Escherichia coli; culturing for 7 days): cannot be proliferated
- Bacterial number At day 0 (Escherichia coli; day 0 of culture): 1000 CFU/mL
- Bacterial number At day 7 (Staphylococcus aureus; cultured 7 days at 37° C.): 0 CFU/mL
- proliferation of bacteria in the solution (Staphylococcus aureus; culturing for 7 days): cannot be proliferated
- Bacterial number At day 0 (Staphylococcus aureus; day 0 of culture): 1000 CFU/mL
